Data from PMC11823646, “Population pharmacokinetics of caspofungin in critically ill patients receiving extracorporeal membrane oxygenation—an ASAP ECMO study” (Antimicrobial Agents and Chemotherapy, 2024).

Columns and labels:
[1] = human, in vivo; cited from earlier work
[2] = Population pharmacokinetics of caspofungin in critically ill patients receiving ECMO; assay type: in vivo, human
Protocol: The present analysis is part of the ASAP ECMO study program that was conducted from November 2012 to November 2019 ([8]). The ASAP ECMO study was a prospective, open-labeled multicenter pharmacokinetic study performed in six ICUs across Australia, New Zealand, South Korea, and Switzerland. A detailed study protocol has been previously described elsewhere ([8], [9]), and as such, is only briefly outlined in this paper.
Patients were eligible for recruitment if they were adult (18–90 years old) ICU patients who were receiving caspofungin while undergoing ECMO therapy for cardiac and/or respiratory failure. Patients were excluded if they required massive blood transfusion (i.e., >50% of blood volume in the preceding 8 hours), received therapeutic plasma exchange in the preceding 24 hours, had bilirubin >150 µmol/L, were pregnant, or were known to be allergic to caspofungin.
Caspofungin was reconstituted and administered as an intermittent intravenous infusion in accordance with the standard administration protocol at each participating center. Caspofungin dosing regimens, ECMO modalities/configurations, and all other subsequent patient management (e.g., RRT application) were determined by the treating clinician in accordance with local clinical guidelines and practices.
Pharmacokinetic sampling was performed during a single dosing interval once the patient had been stabilized on ECMO. Blood samples were drawn from an existing arterial line and were collected into lithium-heparinized tubes. Blood samples were collected at 0, 0.25, 0.5, 0.75, 1, 1.5, 2, 3, 6, 8, 12, and 24 hours after commencement of infusion.
The blood samples were centrifuged at 3,000 × g for 10 minutes to obtain plasma, which was then frozen at –80°C and stored locally at participating sites. The frozen plasma samples were shipped on dry ice by a commercial courier company to the central bioanalysis laboratory at the University of Queensland Centre for Clinical Research (UQCCR) for bioanalysis.
Total caspofungin concentrations in plasma were measured by a validated ultra-high performance liquid chromatography method on a Nexera X2 system connected to a Shimadzu 8030 + triple quadrupole mass spectrometer (Shimadzu Corporation, Kyoto, Japan). Dicloxacillin was used as the internal standard. The assay was performed in batches, and samples were analyzed concurrently with calibration standards and quality-control replicates at high (18 mg/L), medium (3 mg/L), and low (0.6 mg/L) concentrations. The assay limit for caspofungin in plasma was 0.1 mg/L and linearity was established within a range of 0.1–20 mg/L. Precision and accuracy at three different concentrations were all within 12%. Bioanalysis methods were performed in accordance with the U.S. Food and Drug Administration’s guidance for industry on bioanalysis ([10]).
Plasma concentration-time data for caspofungin were analyzed using a nonlinear mixed-effect modeling approach in Monolix version 2021R2 (Lixoft, Antony, France) implementing the stochastic approximation expectation maximization (SAEM) algorithm. Plasma concentration-time data for caspofungin were fitted to one- and two-compartment disposition models with first-order elimination. Between-subject variability (BSV or ω) was described using an exponential model: […]

[3] = human, in vivo; cited from earlier work; remark: listed apart in the source
Description: It is challenging to ascertain the optimal dosing regimen for caspofungin based on MIC breakpoints. The European Committee on Antimicrobial Susceptibility Testing (EUCAST) MIC breakpoints have yet to be established for caspofungin against Candida spp. due to significant interlaboratory variation in MIC reporting ([18]). Until this problem is resolved, Candida isolates that are susceptible to anidulafungin and micafungin should also be considered susceptible to caspofungin.

[4] = parameters: method as in PMID 17660480, PMID 11850256; conditions: human, in vivo; cited from earlier work

SMILES: CC[C@H](C)C[C@H](C)CCCCCCCCC(=O)N[C@H]1C[C@@H](O)[C@@H](NCCN)NC(=O)[C@@H]2[C@@H](O)CCN2C(=O)[C@H]([C@H](O)CCN)NC(=O)[C@H]([C@H](O)[C@@H](O)c2ccc(O)cc2)NC(=O)[C@@H]2C[C@@H](O)CN2C(=O)[C@H]([C@@H](C)O)NC1=O [caspofungin]
- AUC0–24 exposure reported in ICU patients [1]: 74 to 135 µg·h/mL
- typical clearance in other studies [1]: 0.27 to 0.98 L/h
- typical volume of distribution in other studies [1]: 6.19 to 20.91 L
- impact of ECMO on caspofungin pharmacokinetics ([2]; ECMO duration, mode and flow rate tested as covariates, no significant effect): negligible impact
- LBW effect on V, Estimate (%RSE) ([2]; exponent in V=Vpop × (LBW/58.9)^1.24, final model): 1.24 (23.3)
- AUC(0-t) ([2]; human, plasma, 8 critically ill patients on ECMO, maintenance dose 50 or 70 mg daily IV, median, read-out: median AUC0–24 exposure): 115 µg·h/mL
- CL, Estimate (%RSE) ([2]; typical population value, final one-compartment model with first-order elimination, 8 ECMO patients, 64 total plasma concentrations (UHPLC-MS/MS), IV infusion, LD 70 mg then 50 or 70 mg daily): 0.55 (11.9) L/h
- V, Estimate (%RSE) ([2]; typical population value, final one-compartment model, LBW centred on 58.9 kg, 8 ECMO patients, 64 total plasma concentrations): 8.13 (7.15) L
- dose demonstrated to be safe [3]: up to 200 mg/day
- AUC0–24 exposure in healthy volunteers [4]: 98 µg·h/mL
